The target in the assay is CT-L activity of purified 20S proteasome (Homo sapiens, UniProt P20618+P28074). Put plainly: in vitro CT-L activity of purified 20S proteasome. The class given is biochemical.
Setting [1] is: Table 5, read-out: IC50 (μM) Chymotrypsin-like.
Setting [2] is: Table 1, read-out: IC50 (μM) Chymotrypsin-like activity.
Where [3] appears, read: Table 5, @ 10 μM, read-out: Screening Results (% Inhibition @ 10 μM) Chymotrypsin-like.
Setting [4] is: Table 2, read-out: IC50 (μM) Chymotrypsin-like activity.

Read-outs that look alike come from different tables or passages of the source.

As usually defined, the IC50 is the point on the concentration scale where inhibition reaches its midpoint. Regarding `CC(C)N(Cc1nc(-c2ccc(Cl)cc2)no1)C(=O)COc1ccc(Cl)cc1` [11g, 2-(4-Chlorophenoxy)-N-((3-(4-chlorophenyl)-1,2,4-oxadiazol-5-yl)methyl)-N-isopropylacetamide], the IC50 (read-out: IC50, in vitro CT-L) worked out at 1.07 µM.
Take `CC(C)Cc1ccc(OCC(=O)N(Cc2nc(-c3cccnc3)no2)C(C)C)cc1` [drawing 173]: the IC50 under setting [1] amounted to 0.14 ± 0.052 µM.
Still for that read-out and setting: the same measure for `CC(C)c1ccc(OCC(=O)N(Cc2nc(-c3ccc(Cl)cc3)no2)C(C)C)cc1`: 5.13 ± 0.09 µM; for `CCCc1ccc(OCC(=O)N(Cc2nc(-c3cnccn3)no2)C(C)C)cc1` [drawing 167]: 0.105 ± 0.031 µM.
Regarding `CC(C)N(Cc1nc(-c2ccccc2)no1)C(=O)COc1ccc(Cl)cc1` [11h, 2-(4-Chlorophenoxy)-N-isopropyl-N-((3-phenyl-1,2,4-oxadiazol-5-yl)methyl)acetamide], the IC50 runs as follows: under setting [2], 0.51 ± 0.16 µM; (read-out: IC50, in vitro CT-L) 0.3 to 0.5 µM.
On to `CC(C)N(Cc1nc(-c2cccnc2)no1)C(=O)COc1ccc(C(C)(C)C)cc1` [drawing 170], for which the IC50 under setting [1] came out at 65.9 ± 33.7 µM.
With `CC(C)N(Cc1nc(-c2cccnc2)no1)C(=O)COc1ccc(C2CCCCC2)cc1` [11ah], under setting [2], the IC50 came to 1.36 ± 0.184 µM. The “fold loss of CT-L activity” value (compared to 11ad or 11ae) was found to be 40 fold.
As a reminder, the inhibition is the change of the read-out against control, counted positive when it falls. `Cc1ccc(OCC(=O)N(Cc2nc(-c3ccccc3)no2)C(C)C)cn1` [drawing 154]: under setting [3], the inhibition at 10 µM came to 70.6 ± 5.09%. Also, the IC50 under setting [1] worked out at 4 ± 0.89 µM.
As for `Cc1ccc(O[C@@H](C)C(=O)N(Cc2nc(-c3cccnc3)no2)C(C)C)cc1` [16b, (S)—N-Isopropyl-N-((3-(pyridine-3-yl)-1,2,4-oxadiazol-5-yl)methyl)-2-(p-tolyloxy)propanamide], the IC50 (read-out: IC50, in vitro CT-L) was found to be 0.214 µM.
For the compound `Cc1ccc(OCC(=O)N(Cc2nc(-c3ccc(C)cc3)no2)CC(C)C)cc1` [drawing 111], the IC50 under setting [1] was 2.37 ± 0.4 µM.
`Cc1ccc(CNC(=O)N(Cc2nc(-c3ccccc3)no2)C(C)C)cc1` [compound 43]: the “CT-L inhibitory activity, in words” value was “loss of CT-L activity”.
For the compound `Cc1ccc(NCC(=O)N(Cc2nc(-c3ccccc3)no2)C(C)C)cc1` [SO2-090, N-Isopropyl-N-((3-phenyl-1,2,4-oxadiazol-5-yl)methyl)-2-(p-tolylamino)acetamide], under “read-out: IC50, in vitro CT-L”, the IC50 was found to be 5.67 µM.
Turning to `CC(C)N(Cc1nc(-c2ccccc2)no1)C(=O)COc1ccc(F)cc1` [11s, 2-(4-Fluorophenoxy)-N-isopropyl-N-((3-phenyl-1,2,4-oxadiazol-5-yl)methyl)acetamide], the “CT-L inhibitory activity, in words” value was “poor CT-L inhibitory activity”. Moreover, the half-maximal inhibitory concentration (IC50) under setting [2] came out at 8.73 ± 3.05 µM. Further, the “fold loss of CT-L inhibitory activity” value (compared to 11b) is listed as 20 fold.
As for `CC(C)N(Cc1nc(-c2ccccc2)no1)C(=O)COc1ccc2cc(Br)ccc2c1` [11r, 2-(6-Bromonaphthalen-2-yloxy)-N-isopropyl-N-((3-phenyl-1,2,4-oxadiazol-5-yl)methyl)acetamide], the IC50 under setting [2] was greater than 10 µM. Moreover, the inhibition at 10 µM (read-out: % inhibition of CT-L @ 10 μM, @ 10 μM) is less than 70%.
In the case of `CC(C)N(Cc1nc(-c2ccccc2)no1)C(=O)COc1ccc(C(=O)OC(C)(C)C)cc1` [11aq, tert-Butyl 4-(2-(isopropyl((3-phenyl-1,2,4-oxadiazol-5-yl)methyl)amino)-2-oxoethoxy)benzoate], under setting [2], the IC50 was greater than 10 µM.
`Cc1ccc(-c2noc(CN(C(=O)COc3ccc(Cl)cc3)C(C)C)n2)cc1` [drawing 123]: the IC50 under setting [1] is 1.12 ± 0.33 µM.
In the case of `CC(C)CC(NC(=O)c1ccc(OCC(=O)N(Cc2nc(-c3ccccc3)no2)C(C)C)cc1)C(=O)O` (centres unmarked) [drawing 153], for the setting “Table 5, @ 10 μM, 10 µM”, the “Screening Results (% Inhibition @ 10 μM) Chymotrypsin-like” value is −149.24 ± 157.49 (n = 5) %.
Regarding `CC(C)N(Cc1nc(-c2cccnc2)no1)C(=O)COc1ccc(O)cc1` [11u], the IC50 was 0.98 ± 0.5 µM under setting [2] and roughly 1 µM (read-out: IC50, in vitro CT-L).
`CC(C)N(Cc1nc(-c2ccccc2)no1)C(=O)COc1ccccc1` [drawing 127]: the half-inhibitory concentration (IC50) under setting [1] turned out to be 6.22 ± 1.11 µM.
Take `Cc1ccc(OCC(=O)N(C)Cc2nc(-c3ccc(C)cc3)no2)cc1` [12c, N-Methyl-N-((3-p-tolyl-1,2,4-oxadiazol-5-yl)methyl)-2-(p-tolyloxy)acetamide]: under setting [4], the IC50 was 29.9 ± 3.9 µM.
Regarding `CCN(Cc1nc(-c2ccc(C)cc2)no1)C(=O)COc1ccc(C)cc1` [12b, N-Ethyl-N-((3-p-tolyl-1,2,4-oxadiazol-5-yl)methyl)-2-(p-tolyloxy)acetamide], the IC50 is, setting by setting: under setting [4], 8.98 ± 5.21 µM; (read-out: IC50, in vitro CT-L) 8.8 µM. The “fold loss of CT-L activity” value (compared to 1) was 14 fold.
Take “N-Isopropyl-N-((2-phenyloxazol-4-yl)methyl)-2-(p-tolyloxy)acetamide [SO3-023]”: the IC50 (Table 4, read-out: IC50 (μM) Chymotrypsin-like activity) worked out at 0.45 ± 0.18 µM.
On to `CCCc1ccc(OCC(=O)N(Cc2nc(-c3ncccn3)no2)C(C)C)cc1` [11ao, N-Isopropyl-2-(4-propylphenoxy)-N-((3-(pyrimidin-2-yl)-1,2,4-oxadiazol-5-yl)methyl)acetamide], for which the IC50 runs as follows: under setting [2], 1.27 ± 0.226 µM; (read-out: IC50, in vitro CT-L) 1.26 µM. The “fold loss of CT-L activity” value (compared to 11ad or 11ae) worked out at 40 fold.
Turning to `Cc1ccc(OCC(=O)N(Cc2nc(-c3ccc(C(F)(F)F)cc3)no2)C(C)C)cc1` [drawing 112], the IC50 under setting [1] worked out at 0.97 ± 0.15 µM.
In the case of `Cc1ccc(OCC(=O)NCc2nc(-c3ccc(C)cc3)no2)cc1` [12d, N-((3-p-tolyl-1,2,4-oxadiazol-5-yl)methyl)-2-(p-tolyloxy)acetamide], for the setting “Table 2, @ 10 μM”, the “Chymotrypsin-like activity, % @ 10 μM” value is −62% @10 μM.
On to `Cc1ccc(-c2noc(CN(C(=O)COc3ccc(C(F)(F)F)cc3)C(C)C)n2)cc1` [drawing 118], for which, under setting [1], the IC50 was 1.08 ± 0.33 µM.
In the case of `Cc1cccc(OCC(=O)N(Cc2nc(-c3ccccc3)no2)C(C)C)c1` [11o, N-isopropyl-N-((3-phenyl-1,2,4-oxadiazol-5-yl)methyl)-2-(m-tolyloxy)acetamide], the “CT-L inhibitory activity, in words” value is on record as “loss of in vitro activity”. Further, the IC50 under setting [2] was greater than 10 µM.
`CCCc1ccc(OC(C)C(=O)N(Cc2nc(-c3cccnc3)no2)C(C)C)cc1` (racemic) [16d, N-Isopropyl-2-(4-propylphenoxy)-N-((3-(pyridine-3-yl)-1,2,4-oxadiazol-5-yl)methyl)propanamide]: the IC50 (read-out: IC50, in vitro CT-L) was determined as 0.289 µM.
With `Cc1ccc(OCC(=O)N(C)Cc2nc(-c3ccc(C)cc3)no2)cc1` [drawing 186], the IC50 (Table 9, read-out: IC50 (μM) Chymotrypsin-like) came out at 29.9 µM.
Consider `CC(C)N(Cc1nc(-c2ccc(C(F)(F)F)cc2)no1)C(=O)COc1ccc(Cl)cc1` [drawing 120], for which the IC50 under setting [1] is 1.4 ± 0.185 µM.
`CC(C)N(Cc1nc(-c2ccccc2)no1)C(=O)COc1ccc(O)cc1` [11v, 2-(4-hydroxyphenoxy)-N-isopropyl-N-((3-phenyl-1,2,4-oxadiazol-5-yl)methyl)acetamide]: the IC50 worked out at 10.1 ± 4.52 µM under setting [2] and 10 µM (read-out: IC50, in vitro CT-L).
Regarding `CC(C)N(Cc1nc(-c2ccccc2)no1)C(=O)CCl`, under setting [3], the inhibition at 10 µM was -53 ± 23.4%.
With `CCCc1ccc(OCC(=O)N(Cc2nc(-c3ncccn3)no2)C(C)C)cc1` [drawing 174], under setting [1], the IC50 was found to be 1.27 ± 0.226 µM.
As to `CC(C)N(Cc1nc(-c2ccc(Cl)cc2)no1)C(=O)COc1ccc(C(F)(F)F)cc1` [11d, N-((3-(4-chlorophenyl)-1,2,4-oxadiazol-5-yl)methyl)-N-isopropyl-2-(4-(trifluoromethyl)phenoxy)acetamide], the IC50 is, setting by setting: under setting [2], 0.857 ± 0.35 µM; (read-out: IC50, in vitro CT-L) roughly 1 µM.
As to `CC(C)N(Cc1nc(-c2ccccc2)no1)C(=O)COc1ccc(-c2ccccc2)cc1` [drawing 132], the inhibition at 10 µM under setting [3] is less than 70%.
In the case of `CCc1ccc(OCC(=O)N(Cc2nc(-c3ccccc3)no2)C(C)C)cc1` [drawing 134], the IC50 under setting [1] was 0.267 ± 0.05 µM.

Values taken from US9878999B2, “Proteasome chymotrypsin-like inhibition using PI-1833 analogs” (H. Lee Moffitt Cancer Center and Research Institute, Inc., priority 2011, dated 2018).
